Literature values, collected in the PKSmart pharmacokinetics tables (Seal et al. 2025).

Experiment: Lombardo, Berellini, Obach 2018, Drug Metab Dispos 46:1466, doi 10.1124/dmd.118.082966
Conditions: human; for MRT / Vd / clearance / half-life: in vivo, iv; for fraction unbound: plasma

SMILES | MRT [h] | Vd [L/kg] | clearance [mL/min/kg] | half-life [h] | fraction unbound
O=C(NC[C@H](O)CO)c1ccncc1Nc1ccc(I)cc1F | 3.55 | 1.8 | 8.71 | 4.59 | –
NC[C@H]1O[C@H](O[C@H]2[C@H](O)[C@@H](O[C@H]3O[C@H](CO)[C@@H](O)[C@H](N)[C@H]3O)[C@H](N)C[C@@H]2N)[C@H](O)[C@@H](O)[C@@H]1O | 3.1 | 0.26 | 1.4 | 2.1 | –
O=C(O)C(Cl)Cl | 0.6 | 0.19 | 5.3 | 0.65 | –
NC(C(=O)NC1C(=O)N2C(C(=O)O)=C(CSc3c[nH]nn3)CS[C@H]12)c1ccc(O)cc1 (stereo partly specified) | 1.1 | 0.22 | 3.3 | 1.2 | –
CCCc1nn(C)c2c(=O)[nH]c(-c3cc(S(=O)(=O)N4CCN(C)CC4)ccc3OCC)nc12 | 2.5 | 1.36 | – | 2.2 | –
NC[C@H]1OB(O)c2c(OCCCO)cccc21 | 9.6 | 2.37 | 4.1 | 11.6 | –
CC[C@@H]([C@H](C)O)n1ncn(-c2ccc(N3CCN(c4ccc(OC[C@H]5CO[C@@](Cn6cncn6)(c6ccc(F)cc6F)C5)cc4)CC3)cc2)c1=O | 14.5 | 3.8 | 4.3 | 10.6 | 0.013
O=C(NCCN1CCOCC1)c1ccc(Cl)cc1 | 1.8 | 1.1 | 10 | 1.5 | –
OCCN(CCO)c1nc(N2CCCCC2)c2nc(N(CCO)CCO)nc(N3CCCCC3)c2n1 | 6.8 | – | 2 | 13 | –
CC(C)CN(C[C@@H](O)[C@H](Cc1ccccc1)NC(=O)O[C@H]1CO[C@H]2OCC[C@H]21)S(=O)(=O)c1ccc(N)cc1 | – | – | 7.81 | 15 | –
C#C[C@]1(O)C=C[C@H]2[C@@H]3CC=C4CC(=O)CCC4[C@H]3CC[C@@]21CC (stereo partly specified) | 9.6 | 0.46 | 0.8 | 10 | 0.023
CC1(C)O[C@@H]2C[C@H]3[C@@H]4C[C@H](F)C5=CC(=O)C=C[C@@]5(C)[C@H]4[C@@H](O)C[C@]3(C)[C@]2(C(=O)CO)O1 | 1.89 | 1.08 | 9.5 | 1.68 | –
CN1C(=O)C(O)C[C@H]1c1cccnc1 (stereo partly specified) | 7.9 | 0.85 | 1.8 | 5.9 | –
CN(C)CC/C=C1\c2ccccc2COc2ccccc21 | 15 | 12 | 14 | 15 | –
COc1cccc2c1C(=O)c1c(O)c3c(c(O)c1C2=O)C[C@@](O)(C(=O)CO)C[C@@H]3O[C@@H]1C[C@H](N)[C@H](O[C@@H]2CCCCO2)[C@H](C)O1 | 12.5 | 43.2 | 57.7 | 11.1 | –
NCCc1ccc(O)c(O)c1 | 0.19 | 0.74 | 65.9 | 0.42 | 0.87
CCOc1ccc(CC2=NCCc3cc(OCC)c(OCC)cc32)cc1OCC | 9 | 1.9 | 3.5 | 9.3 | –

SMILES | MRT [h] | Vd [L/kg] | clearance [mL/min/kg] | half-life [h] | fraction unbound
COc1ccc([C@@H]2Sc3cc(Cl)ccc3N(CCN(C)C)C(=O)C2OC(C)=O)cc1 (stereo partly specified) | 12.3 | 9.7 | 13.7 | 10.6 | 0.1
CCOc1ccc(Cc2cc(C3O[C@H](CO)[C@@H](O)[C@H](O)[C@H]3O)ccc2Cl)cc1 (stereo partly specified) | 9.5 | 1.7 | 3 | 12.2 | 0.09
O=P(O)(O)OC(Cn1cncn1)(Cn1cncn1)c1ccc(F)cc1F | 2 | 0.15 | 1.3 | 2.1 | 0.042
Nc1c(CC(=O)O)cccc1C(=O)c1ccc(Br)cc1 | 1.5 | 0.11 | 1.3 | 2.6 | 0.0011
CC(C(=O)O)c1ccc(C(=O)c2cccs2)cc1 (stereo unspecified) | 0.88 | 0.04 | 0.76 | 2.1 | –
CC1(C)CC[C@]2(C(=O)O)CC[C@]3(COC(=O)C=Cc4cc(O)ccc4NC(=O)/C=C/C(=O)O)C(=CC[C@@H]4[C@@]5(C)CCC(=O)C(C)(C)[C@@H]5CC[C@]43C)[C@@H]2C1 | 3.18 | 1.45 | 7.6 | – | –
CC(C)(C(=O)O)c1ccc(C(=O)CCCN2CCC(OC(c3ccccc3)c3ccccc3)CC2)cc1 | 16.7 | 0.41 | 0.4 | 9.8 | 0.05
C[C@@H](NCCCc1cccc(C(F)(F)F)c1)c1cccc2ccccc12 | 16 | 17.6 | 18.3 | 19.9 | 0.05
CCON=C(C(=O)NC1C(=O)N2C(C(=O)[O-])=C(Sc3nc(-c4cc[n+](C)cc4)cs3)CS[C@H]12)c1nsc(NP(=O)(O)O)n1 (stereo partly specified) | 0.11 | 0.53 | 83.6 | 0.09 | 0.8
CCCCCCCC/C=C/CCCCCCCC(=O)OC[C@H]1O[C@@H](n2ccc(N)nc2=O)[C@@H](O)[C@@H]1O | 0.51 | 0.14 | 4.53 | 0.36 | –
CCCN(CCc1cccs1)[C@H]1CCc2c(O)cccc2C1 | 2.6 | 5.7 | 37 | 4 | 0.08
C[C@H](O)C1C(=O)N2C(C(=O)O)=C(S[C@H]3CN[C@H](CNS(N)(=O)=O)C3)[C@@H](C)C12 (stereo partly specified) | – | – | – | 1.2 | 0.92
CCOP(=O)(OCC)C(C)NC(=O)N(CCCl)N=O (stereo unspecified) | 0.55 | 0.62 | 18.5 | 0.38 | –
CC(O)Cn1cnc2c1c(=O)n(C)c(=O)n2C (stereo unspecified) | 8.39 | 0.59 | 1.17 | 7.8 | –
Cc1ccc(-n2nccn2)c(C(=O)N2CCN(c3nc4cc(Cl)ccc4o3)CC[C@H]2C)c1 | 13.8 | 0.69 | 0.84 | 10.4 | 0.05
COc1c(N2C[C@@H](C)C[C@H](N)C2)ccc2c(=O)c(C(=O)O)cn(C3CC3)c12 | 8.4 | 1.9 | 3.8 | 13.5 | –
Cc1cc(O)c2c(=O)c3c(O)cc(O)c4c5c(O)cc(O)c6c(=O)c7c(O)cc(CO)c8c1c2c(c34)c(c65)c78 | 15 | 0.56 | 0.62 | 20 | –
